Among the data in PubChem BioAssay AID206 (DTP/NCI, 2004) are T/C values, retold here.

In the test the test system is nude mice, HT29 intrarenal xenograft, tumor weight T/C. Put plainly: NCI In Vivo Anticancer Drug Screen. Data for tumor model HT29;CX-1 Human Adenocarcinoma (MER+) (intrarenal inoculation) in NU/NU Swiss (nude) mice. The following applies: endpoint: mean tumor weight change, higher = larger tumour. In short, it runs like this: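 Endpoint measured as tumor size or survival; ratio reported is treated group over vehicle controls.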

Where [1] appears, read: dose: 50.0 mg/kg/injection, schedule: Q01DX010 (sc), vehicle: saline.
[2] abbreviates: dose: 100.0 mg/kg/injection, schedule: Q01DX010 (sc), vehicle: saline with Tween-80.
Setting [3] is: dose: 400.0 mg/kg/injection, schedule: Q01DX010 (sc), vehicle: saline with Tween-80.
Setting [4] is: dose: 300.0 mg/kg/injection, schedule: Q04DX004 (sc), vehicle: saline with Tween-80.
Where [5] appears, read: dose: 1200.0 mg/kg/injection, schedule: Q04DX004 (sc), vehicle: saline with Tween-80.
[6] abbreviates: dose: 150.0 mg/kg/injection, schedule: Q04DX004 (sc), vehicle: saline with Tween-80.
The mark [7] stands for this setting: dose: 600.0 mg/kg/injection, schedule: Q04DX004 (sc), vehicle: saline with Tween-80.
Setting [8] is: dose: 75.0 mg/kg/injection, schedule: Q04DX004 (sc), vehicle: saline with Tween-80.

Values joined by “and” are separate entries in the source; they are usually repeats but may differ in a detail not shown here. Equal entries are not always repeated. Inconclusive results are not listed. Starred links: 1 amine or outer side, 2 acyl side, 3 side chain; linkers in the order of their positions; H or OH if unused. Non-standard residues stand in square brackets, D forms with d. Residues, ends and D or L forms follow the SMILES beside them. *: point of attachment. X2 = CCC(=O)CC1CC(C)CC(C(=O)[*:2])N1[*:1]; X1 = CCCCCCCCC(C)C(=O)*; Aib = CC(C)(N)C(=O)O; X3 = CC(CN(C)CCO)N*

Turning to `Cc1cc(NCCCN(C)C)c2ccc3c(ccc4c(NCCCN(C)C)cc(C)nc43)c2n1`, the T/C (dose: 9.38 mg/kg/injection, schedule: Q04DX004 (sc), vehicle: saline with Tween-80) was 53 % of control.
Consider `C[CH2][Ge]1([CH2]C)[CH2]CC2(CCN(CCCN(C)C)C2)C[CH2]1`, for which the T/C under setting [1] was 99 % of control.
For `CC1=CC(=Nc2ccc(N(CCCl)CCCl)cc2)C=C(C)C1=O`, the T/C is 71 % of control (dose: 150.0 mg/kg/injection, schedule: Q04DX004 (sc), vehicle: Klucel (hydroxypropylcellulose) (HPC)); 76 % of control (dose: 300.0 mg/kg/injection, schedule: Q04DX004 (sc), vehicle: Klucel (hydroxypropylcellulose) (HPC)); 53 % of control (dose: 600.0 mg/kg/injection, schedule: Q04DX004 (sc), vehicle: Klucel (hydroxypropylcellulose) (HPC)).
Take `COC1=C2C[C@@H](C)C[C@@H](OC)[C@@H](O)[C@H](C)/C=C(\C)[C@@H](OC(N)=O)[C@H](OC)/C=C\C=C(/C)C(=O)NC(=CC1=O)C2=O`: the T/C was 110 % of control (dose: 2.0 mg/kg/injection, schedule: Q04DX004 (sc), vehicle: saline); 113 % of control (dose: 4.0 mg/kg/injection, schedule: Q04DX004 (sc), vehicle: saline); 54 % of control (dose: 8.0 mg/kg/injection, schedule: Q04DX004 (sc), vehicle: saline); 59 % of control (dose: 16.0 mg/kg/injection, schedule: Q04DX004 (sc), vehicle: saline).
As to `C[C@H](N)C(=O)N[C@@H]1[C@H]2C(=C(O)C[C@@H](O)[C@@H]2O)C(=O)O[C@]1(C)C(Cl)Cl`, the T/C (dose: 1.5 mg/kg/injection, schedule: Q04DX004 (sc), vehicle: Klucel (hydroxypropylcellulose) (HPC)) was 33 % of control.
As to `NC(=O)NO`, the T/C is 75 % of control (dose: 37.5 mg/kg/injection, schedule: Q04DX004 (sc), vehicle: saline); 79 % of control (dose: 75.0 mg/kg/injection, schedule: Q04DX004 (sc), vehicle: saline); 75 % of control (dose: 150.0 mg/kg/injection, schedule: Q04DX004 (sc), vehicle: saline); 86 % of control (dose: 300.0 mg/kg/injection, schedule: Q04DX004 (sc), vehicle: saline).
In the case of `CC(=O)NC(CCc1ccc(Cl)c(Cl)c1)c1cccc(O)c(=O)c1` (stereo not drawn), the T/C by setting is: (dose: 50.0 mg/kg/injection, schedule: Q04DX004 (sc), vehicle: Klucel (hydroxypropylcellulose) (HPC)) 107 % of control; (dose: 100.0 mg/kg/injection, schedule: Q04DX004 (sc), vehicle: Klucel (hydroxypropylcellulose) (HPC)) 124 % of control; (dose: 200.0 mg/kg/injection, schedule: Q04DX004 (sc), vehicle: Klucel (hydroxypropylcellulose) (HPC)) 154 % of control.
`O=C1NC(c2ccccc2)N=C2Oc3ccccc3C=C12` (stereo not drawn): the T/C (dose: 50.0 mg/kg/injection, schedule: Q01DX010 (sc), vehicle: saline with Tween-80) is 115 % of control; the T/C under setting [2] was 155 % of control; the T/C (dose: 200.0 mg/kg/injection, schedule: Q01DX010 (sc), vehicle: saline with Tween-80) was 77 % of control; the T/C under setting [3] is 54 % of control.
On to `Cc1ccc(NCCN(C)C)c2c(=O)c3cc(O)ccc3sc12`, for which the T/C is 81 % of control (dose: 225.0 mg/kg/injection, schedule: Q04DX004 (sc), vehicle: Klucel (hydroxypropylcellulose) (HPC)); 64 % of control (dose: 450.0 mg/kg/injection, schedule: Q04DX004 (sc), vehicle: Klucel (hydroxypropylcellulose) (HPC)); 99 % of control (dose: 900.0 mg/kg/injection, schedule: Q04DX004 (sc), vehicle: Klucel (hydroxypropylcellulose) (HPC)); 68 % of control (dose: 1800.0 mg/kg/injection, schedule: Q04DX004 (sc), vehicle: Klucel (hydroxypropylcellulose) (HPC)).
`CCCCCCCCC(C)C(=O)N1CCCC1C(=O)N1C(CC(=O)CC)CC(C)CC1C(=O)NC(C)C(=O)NC(C)(C)C(=O)NC(C)(C)C(=O)NC(C(=O)NC(C)C(=O)NC(C)(C)C(=O)NC(C)(C)C(=O)NC(C)CN(C)CCO)C(C)CC` (stereo not drawn) (X1-P[X2]A[Aib][Aib]IA[Aib][Aib]-X3; configuration not given here): the T/C by setting is: (dose: 1.88 mg/kg/injection, schedule: Q04DX004 (sc), vehicle: Klucel (hydroxypropylcellulose) (HPC)) 94 % of control; (dose: 3.75 mg/kg/injection, schedule: Q04DX004 (sc), vehicle: Klucel (hydroxypropylcellulose) (HPC)) 59 % of control and 67 % of control.
For `O=C1SC(c2ccccc2)=S=C1c1ccccc1`, the T/C is 102 % of control under setting [4] and 90 % of control under setting [5].
For the molecule `O=P1(N(CCCl)CCCl)NCCCO1` (stereo not drawn), the T/C is 75 % of control (dose: 40.0 mg/kg/injection, schedule: Q04DX004 (ip), vehicle: saline); 58 % of control under setting [1]; 53 % of control (dose: 60.0 mg/kg/injection, schedule: Q04DX004 (ip), vehicle: saline); 26 % of control (dose: 90.0 mg/kg/injection, schedule: Q04DX004 (ip), vehicle: saline).
For the molecule `CCS/C(SC)=C(/c1ccccc1)[P+](c1ccccc1)(c1ccccc1)c1ccccc1`, the T/C (dose: 18.75 mg/kg/injection, schedule: Q04DX004 (sc), vehicle: Klucel (hydroxypropylcellulose) (HPC)) is 93 % of control.
`NC(=O)c1ncn2c(=O)n(CCCl)nnc12`: the T/C (dose: 25.0 mg/kg/injection, schedule: Q04DX004 (sc), vehicle: suspension in saline) is 214 % of control and the T/C (dose: 50.0 mg/kg/injection, schedule: Q04DX004 (sc), vehicle: suspension in saline) is 72 % of control.
Consider `Cc1oc2c(C)c3oc(=O)cc(C)c3cc2c1CCl`, for which the T/C runs as follows: under setting [6], 107 % of control; under setting [4], 71 % of control; under setting [7], 114 % of control.
Turning to `CC1=C(C)C(=O)O[C@@H]([C@](C)(O)[C@]2(O)CC[C@@]3(O)[C@@H]4C[C@H]5O[C@]56[C@@H](O)C=CC(=O)[C@]6(C)[C@H]4CC[C@]23C)C1`, the T/C is, setting by setting: (dose: 4.0 mg/kg/injection, schedule: Q01DX010 (sc), vehicle: saline) 169 % of control; (dose: 64.0 mg/kg/injection, schedule: Q01DX010 (sc), vehicle: saline) 46 % of control.
As for `O=Cc1ccc(C(Cl)(Cl)Cl)cc1`, the T/C is 121 % of control under setting [2] and 107 % of control under setting [3].
With `COc1cc2cc(c1Cl)N(C)C(=O)CC(OC(=O)C(C)C)C1(C)OC1C(C)C1CC(O)(NC(=O)O1)C(OC)/C=C/C=C(C)C2` (stereo not drawn), the T/C is 74 % of control (dose: 12.5 micrograms/kg/injection, schedule: Q04DX004 (sc), vehicle: saline + alcohol); 155 % of control (dose: 25.0 micrograms/kg/injection, schedule: Q04DX004 (sc), vehicle: saline + alcohol); 165 % of control (dose: 50.0 micrograms/kg/injection, schedule: Q04DX004 (sc), vehicle: saline + alcohol); 31 % of control (dose: 100.0 micrograms/kg/injection, schedule: Q04DX004 (sc), vehicle: saline + alcohol); 5 % of control (dose: 500.0 micrograms/kg/injection, schedule: Q04DX004 (sc), vehicle: saline + alcohol).
Consider `CC(=O)ON(C(C)=O)c1ccc(C(N)=O)cc1`, for which the T/C is, setting by setting: under setting [8], 83 % of control; under setting [6], 77 % of control; under setting [4], 60 % of control; under setting [7], 71 % of control and 78 % of control; under setting [5], 103 % of control; (dose: 2400.0 mg/kg/injection, schedule: Q04DX004 (sc), vehicle: saline with Tween-80) 61 % of control.
For `CN(N=O)C(N)=O`, the T/C (dose: 12.5 mg/kg/injection, schedule: Q01DX010 (sc), vehicle: saline with Tween-80) is 119 % of control; the T/C (dose: 25.0 mg/kg/injection, schedule: Q01DX010 (sc), vehicle: saline with Tween-80) was 41 % of control; the T/C (dose: 100.0 mg/kg/injection, schedule: Q04DX004 (sc), vehicle: suspension in saline) was 101 % of control.
On to `CCCCCCCCCCCCSC1=C(Cl)C(=O)C(OC)=C(OC)C1=O`, for which the T/C runs as follows: under setting [8], 76 % of control; under setting [6], 36 % of control; under setting [4], 25 % of control.
As to `C[n+]1cccc(NC(=O)c2ccc(NC(=O)C34CCC(C(=O)Nc5ccc(C(=O)Nc6ccc[n+](C)c6)cc5)(CC3)CC4)cc2)c1`, the T/C reads like this: (dose: 12.5 mg/kg/injection, schedule: Q04DX004 (sc), vehicle: saline with Tween-80) 118 % of control; (dose: 25.0 mg/kg/injection, schedule: Q04DX004 (sc), vehicle: saline with Tween-80) 47 % of control; (dose: 50.0 mg/kg/injection, schedule: Q04DX004 (sc), vehicle: saline with Tween-80) 7 % of control and 21 % of control.
